Laboratory results published in US9056865B2, “Pyridine-2-derivatives as smoothened receptor modulators” (Pfizer Inc., priority 2010, dated 2015).

Legend:
Gli-Luc/MEF cells = experiment: Gli-Luc/MEF assay; format: cell-based, mouse; settings: Mus musculus, MEF; Shh-stimulated luciferase, 48 hours
Description: The Gli-Luc/MEF cells obtained from Gli-Luc transgenic mice contain a luciferase reporter gene under the control of the Gli response element. Luciferase activity stimulated with Sonic hedgehog ligand was inhibited by Smo inhibitors, and IC50 was subsequently calculated.
Plates were incubated at 37° C. and 5% CO2 overnight. On day two, cells were dosed with test compounds at a final concentration ranging from 3 μM to 50 μM at a 3-time series dilution. Immediately after dosing cells with compounds, recombinant mouse sonic hedgehog (Shh, R&D Systems 464-SH) was added to a final concentration of 2 μg/mL. The cells were incubated with compounds and Shh for 48 hours at 37° C. and 5% CO2. Luciferase assays were conducted on Day 4 using the Bright-Glo Luciferase assay system (Promega E2620) according to Promega's protocol. Briefly, Bright-Glo luciferase reagent was made up and 25 μL were added to each well of the 384-well plate containing media. Plates were kept at room temperature for 5 minutes, and then read on an Envision Luminescence plate reader (Perkin-Elmer). IC50 of the inhibition was calculated by using GraphPad Prism.

human Smo = human Smo (Homo sapiens (Human), UniProt Q99835); experiment: Smo radioligand competition binding assay; settings: for inhibition at 0.05 µM: 0.05 μM test compound, read-out: Smo % inh. @ 0.05 μM
human Smo, sequence (Q99835 181-787): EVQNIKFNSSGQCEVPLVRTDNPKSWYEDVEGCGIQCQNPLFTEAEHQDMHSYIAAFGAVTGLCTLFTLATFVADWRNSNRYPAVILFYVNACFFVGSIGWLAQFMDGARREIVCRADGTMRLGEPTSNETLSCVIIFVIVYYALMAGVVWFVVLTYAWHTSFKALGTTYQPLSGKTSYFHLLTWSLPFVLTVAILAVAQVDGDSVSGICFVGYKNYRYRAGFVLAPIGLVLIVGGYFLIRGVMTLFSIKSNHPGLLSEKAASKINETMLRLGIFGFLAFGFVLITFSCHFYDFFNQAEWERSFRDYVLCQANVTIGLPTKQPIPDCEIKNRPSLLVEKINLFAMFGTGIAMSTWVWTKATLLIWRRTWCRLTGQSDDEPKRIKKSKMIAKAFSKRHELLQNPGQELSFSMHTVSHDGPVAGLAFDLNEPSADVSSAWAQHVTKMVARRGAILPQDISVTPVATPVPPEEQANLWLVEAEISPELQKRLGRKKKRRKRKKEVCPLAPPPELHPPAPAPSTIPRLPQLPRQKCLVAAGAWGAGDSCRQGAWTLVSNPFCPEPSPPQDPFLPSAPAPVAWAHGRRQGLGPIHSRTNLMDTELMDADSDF
Description: Smo Radioligand Competition Binding Assay
Membranes were prepared from a stable cell line created in HEK293FlpIn-TetR cells (Invitrogen) using Flp recombinase-mediated insertion of the pSecTag-FRT/V5-His vector containing a cDNA encoding amino acids […] of human Smo fused to the murine Igk leader sequence to produce a cell surface expressed Smo 181-781 protein. Hygromycin-resistant clones were obtained and stained for LacZ expression (no expression indicates a correct knock-in of fusion cDNA). LacZ-negative cells were analyzed for binding tritiated Smo antagonists. For membrane preparation, the HEK293 cells expressing Smo 181-781 were grown to 90% confluence in nine to fifteen 245 mm×245 mm×22 mm dishes, washed with Dulbecco's PBS (15 mL per dish) and harvested via scraping in 10 mL of DPBS. The cells were collected and centrifuged at 1500 rpm (400×g) for 10 min at 4° C. The cell pellets were re-suspended in 40 mL of cold DPBS and washed by centrifugation at 2300 rpm (950×g max) for 10 minutes at 4° C. The supernatant was aspirated and the cell pellet was snap frozen in a methanol/dry ice bath and stored at −70° C. For membrane preparation, 15 mL of Membrane Preparation Buffer (50 mM Tris-HCl pH 7.5, 250 mM sucrose with Roche complete protease cocktail tablets) was added to the tube containing the cell pellet, then cells are rapidly thawed, and homogenized using an Ultra-Turrax T8 (IKA Labortechnik) set on “6” for 15 seconds for 5-6 times in icy water bath. This homogenate was diluted up to 50 mL using Membrane Preparation Buffer and centrifuged at 35,000 rpm in a Beckman Ti45 rotor (140,000×g) for 35 minutes at 4° C. followed by aspiration of the supernatant and re-suspension of the pellet in 5 mL of Assay Buffer (50 mM Tris-HCl pH 7.5, 100 mM NaCl, 25 mM MgCl2, 1 mM EDTA, and 0.1% protease free bovine serum albumin). The re-suspended pellet was then homogenized in a glass tissue grinder. The re-suspended membranes were aliquoted (0.5 mL aliquots), snap frozen and stored at −70° C. Total protein in the membrane preparation was determined using the Pierce BCA protein assay (Pierce Chemical).
For the binding competition assay, 100 μL of Assay Buffer was added to all the wells of a 96 well GF/B filter plate (Millipore MultiScreen-HTS-FB cat# MSFBN6B50) for 10 minutes to pre-wet the filter prior to evacuation of the buffer (8 inches Hg for 8 seconds). To the pre-wet wells is added: 20 μL of Assay Buffer, 10 μL diluted test agent, 20 μL of a tritiated Smo antagonist (15 nM stock solution), and 50 μL of membrane preparation (40 μg total protein per well). The plates are sealed and mixed at room temperature for 5 min, incubated at room temperature for 2 hours, then washed 5 times with 100 μL/each of wash buffer and vacuum dried for 8 seconds at 8 inches Hg. The plate is then dried for one hour in a 60° C. oven prior to the addition of 45 μL of Microscint 20 (Packard, #6013621) to each well and incubation at RT for 30 minutes to 1 hour. The plate is counted in a TopCount scintillation counter (Perkin Elmer).
Data analysis uses Excel for % Inhibition and Graphpad Prism for IC50 calculation. Total binding (TB, in the absence of inhibitors)=average of tritiated Smo antagonist 3 nM+Smo membrane (40 μg/wells (approx 5000-7000 CPM)). Non-specific binding (NSB)=average of tritiated Smo antagonist (3 nM)+cold Smo antagonist (30 μM)+Smo membrane (approx 600-1200 CPM). Specific binding (SB)=(total binding−non-specific binding). % Inhibition=[1−(compound Specific binding/control Specific binding)]×100%. IC50 is calculated by fitting the data to the four parameter sigmoidal dose-response curve (variable slope) Y=Bottom+(Top-Bottom)/(1+10^((LogEC50−X)*HillSlope)). X is the logarithm of the inhibitor concentration. Y is the response; Y starts at Bottom and goes to Top with a sigmoid shape.

Structure (SMILES)	IC50 (Gli-Luc/MEF cells)	IC50 (human Smo)	inhibition at 0.05 µM (human Smo)
Cc1cccnc1-c1cc(N2CCC(OCC(=O)NC(C)(C)C)CC2)ncc1Cl [Example A-42, N-tert-butyl-2-{[1-(5′-chloro-3-methyl-2,4′-bipyridin-2′-yl)piperidin-4-yl]oxy}acetamide]	37.1 nM	125 nM	80.5%
Cc1cccnc1-c1cc(N2CCN(C(=O)C(C)(C)C)CC2)ncc1Cl [Example A-43, 5′-chloro-2′-[4-(2,2-dimethylpropanoyl)piperazin-1-yl]-3-methyl-2,4′-bipyridine]	19.1 nM	25.5 nM	95%
Cc1cccnc1-c1cc(N2CCN(C(=O)C(C)C)CC2)ncc1Cl [Example A-44, 5′-chloro-2′-(4-isobutyrylpiperazin-1-yl)-3-methyl-2,4′-bipyridine]	80.2 nM	128 nM	82.9%
CS(=O)(=O)NC1CCN(c2ncc(Cl)c(-c3ccccn3)n2)CC1 [Example A-45, N-[1-(5-chloro-4-pyridin-2-ylpyrimidin-2-yl)piperidin-4-yl]methanesulfonamide]	58.2 nM	83.7 nM	80.1%
Cc1cccnc1-c1cc(N2CCN(c3ncc(Br)cn3)CC2)ncc1Cl [Example A-46, 2′-[4-(5-bromopyrimidin-2-yl)piperazin-1-yl]-5′-chloro-3-methyl-2,4′-bipyridine]	21.1 nM	–	97.6%
Cc1cccnc1-c1cc(N2CCN(C(=O)CC(C)(C)O)CC2)ncc1Cl [Example A-47, 4-[4-(5′-chloro-3-methyl-2,4′-bipyridin-2′-yl)piperazin-1-yl]-2-methyl-4-oxobutan-2-ol]	36.3 nM	21.7 nM	95.2%
Cc1cccnc1-c1cc(N2CCC(CNS(C)(=O)=O)CC2)ncc1Cl [Example A-48, N-{[1-(5′-chloro-3-methyl-2,4′-bipyridin-2′-yl)piperidin-4-yl]methyl}methanesulfonamide]	48 nM	57 nM	82%
Cc1cccnc1-c1cc(N2CCC(NCCS(C)(=O)=O)CC2)ncc1Cl [Example A-49, 1-(5′-chloro-3-methyl-2,4′-bipyridin-2′-yl)-N-[2-(methylsulfonyl)ethyl]piperidin-4-amine]	44 nM	39 nM	87%
Cc1cccnc1-c1ccnc(N2CCC(NS(C)(=O)=O)CC2)n1 [Example A-50, N-{1-[4-(3-methylpyridin-2-yl)pyrimidin-2-yl]piperidin-4-yl}methanesulfonamide]	27.4 nM	17.7 nM	97.1%
Cc1cccnc1-c1cc(N2CCC(CS(C)(=O)=O)CC2)ncc1Cl [Example A-51, 5′-chloro-3-methyl-2′-{4-[(methylsulfonyl)methyl]piperidin-1-yl}-2,4′-bipyridine]	23.6 nM	35.8 nM	87.8%
Cc1cccnc1-c1cc(N2CCC(NC(=O)CC(C)(C)O)CC2)ncc1Cl [Example A-52, N-(1-(5′-chloro-3-methyl-[2,4′-bipyridin]-2′-yl)piperidin-4-yl)-3-hydroxy-3-methylbutanamide]	28 nM	54.3 nM	90.6%
CS(=O)(=O)CC1CCN(c2ccc(Cl)c(-c3ccccn3)n2)CC1 [Example A-53, 3-chloro-6-{4-[(methylsulfonyl)methyl]piperidin-1-yl}-2,2′-bipyridine]	27.3 nM	38.2 nM	93.3%
Cc1cccnc1-c1cc(N2CCC(C(=O)NCc3ncc[nH]3)CC2)ncc1Cl [Example A-54, 1-(5′-chloro-3-methyl-2,4′-bipyridin-2′-yl)-N-(1H-imidazol-2-ylmethyl)piperidine-4-carboxamide]	55.4 nM	64.9 nM	86.1%
Cc1cccnc1-c1cc(N2CCC(C(=O)NC3(c4ccccn4)CC3)CC2)ncc1Cl [Example A-55, 1-(5′-chloro-3-methyl-2,4′-bipyridin-2′-yl)-N-(1-pyridin-2-ylcyclopropyl)piperidine-4-carboxamide]	25.2 nM	63.3 nM	83.7%
Cc1cccnc1-c1cc(N2CCC(C(=O)N3CCC(Nc4ccccn4)CC3)CC2)ncc1Cl [Example A-56, N-(1-{[1-(5′-chloro-3-methyl-2,4′-bipyridin-2′-yl)piperidin-4-yl]carbonyl}piperidin-4-yl)pyridin-2-amine]	41.6 nM	106 nM	80.5%
Cc1cccnc1-c1cc(N2CCC(C(=O)N[C@@H]3CCN(S(C)(=O)=O)C3)CC2)ncc1Cl [Example A-57, 1-(5′-chloro-3-methyl-2,4′-bipyridin-2′-yl)-N-[(3R)-1-(methylsulfonyl)pyrrolidin-3-yl]piperidine-4-carboxamide]	78.2 nM	90.7 nM	87.9%
Cc1cccnc1-c1cc(N2CCC(C(=O)N[C@@H]3c4ccccc4C[C@@H]3O)CC2)ncc1Cl [Example A-58, 1-(5′-chloro-3-methyl-2,4′-bipyridin-2′-yl)-N-[(1R,2S)-2-hydroxy-2,3-dihydro-1H-inden-1-yl]piperidine-4-carboxamide]	38.8 nM	184 nM	70.3%
COc1cnc(NC(=O)C2CCN(c3cc(-c4ncccc4C)c(Cl)cn3)CC2)cn1 [Example A-59, 1-(5′-chloro-3-methyl-2,4′-bipyridin-2′-yl)-N-(5-methoxypyrazin-2-yl)piperidine-4-carboxamide]	21.2 nM	71.4 nM	89.5%
Cc1cccnc1-c1cc(N2CCC(C(=O)N[C@H]3CCN(S(C)(=O)=O)C3)CC2)ncc1Cl [Example A-60, 1-(5′-chloro-3-methyl-2,4′-bipyridin-2′-yl)-N-[(3S)-1-(methylsulfonyl)pyrrolidin-3-yl]piperidine-4-carboxamide]	57.4 nM	67 nM	83.8%
Cc1cccnc1-c1cc(N2CCC(C(=O)NCCC3C(=O)Nc4ccccc43)CC2)ncc1Cl (centres unmarked) [Example A-61, 1-(5′-chloro-3-methyl-2,4′-bipyridin-2′-yl)-N-[2-(2-oxo-2,3-dihydro-1H-indol-3-yl)ethyl]piperidine-4-carboxamide]	37.1 nM	40.9 nM	91.9%
Cc1cccnc1-c1cc(N2CCC(C(=O)N3CC(S(=O)(=O)CC4CC4)C3)CC2)ncc1Cl [Example A-62, 5′-chloro-2′-[4-({3-[(cyclopropylmethyl)sulfonyl]azetidin-1-yl}carbonyl)piperidin-1-yl]-3-methyl-2,4′-bipyridine]	106 nM	234 nM	72.4%
